According to patent US8877820B2, “Compositions comprising a retinoid and an NFkB-inhibitor and their methods of use” (Johnson & Johnson Consumer Companies, Inc., priority 2010, dated 2014):

Tested on: NF-κB gene reporter in FB293 cells
Assay: NFκB-INHIBITION TEST (luciferase gene reporter, TNFα-stimulated FB293 cells)
Assay type: cell-based, human
Settings: for Percent NF-kB Inhibition: FB293 cells, TNFα 100 ng/ml, 24 h; for NF-κB inhibition (in words): summary of Table 2
Method: The NFκB-INHIBITION TEST is conducted in the following manner. FB293 cells, a stable transfected human epithelial cell line containing the gene reporter for NF-κB are used. They may be obtained from, e.g., Panomics (Fremont, Calif.). FB293 are plated at a density of 5×10^4 cells/mL in a suitable medium, e.g., Dulbecco's modified Eagle's medium (DMEM) supplemented with 10% fetal bovine serum (Invitrogen, San Diego, Calif.). The FB293 cells are stimulated with 100 ng/mL of Tumor Necrosis Factor-α (TNFα, available from Sigma-Aldrich of St Louis, Mo.) in the presence of the test sample. Separately, a control sample is tested wherein no test sample is applied. Following a 24-hour incubation at 37° C. with 5% CO2, cells are lysed with 40 μl of reporter lysis buffer (Promega, Madison, Wis.). A 20-μl aliquot of the lysate is assayed using a luciferase assay kit (Promega) and counted for 10 s in a Lmax luminometer (Molecular Devices, Sunnyvale, Calif.) with the data represented as the relative light unit/second. Percent NFκB Inhibition of the test sample is calculated as: NFκB Inhibition=[1−(Lsample/Lcontrol)]*100 where Lsample is the luminescence of the sample and Lcontrol is the luminescence of the control.
The NFκB-INHIBITION TEST described above was performed on test samples of Bay 11-7082 (Sigma-Aldrich, St. Louis, Mo.), Tetrahydrocurcuminoids CG (Sabinsa Corporation, Piscataway, N.J.), as well as various concentrations of 4-hexylresorcinol. The results are shown in Table 2, in which NF-κB Gene Reporter Activation (Luminescence, L) is reported for the test samples and a control sample. Percent NF-κB Inhibition is also reported.

## Cc1ccc(S(=O)(=O)/C=C/C#N)cc1 [Bay 11-7082, (E)-3-(4-methylphenylsulfonyl)-2-propenenitrile]
25 μM
  Percent NF-kB Inhibition: 89.5%
  NF-κB inhibition (in words): strong NF-κB inhibition

## CCCCCCc1ccc(O)cc1O [4-Hexylresorcinol, 4-Hexyl resorcinol]
1 μg/ml
  Percent NF-kB Inhibition: 1.9%
5 μg/ml
  Percent NF-kB Inhibition: 50.9%
10 μg/ml
  Percent NF-kB Inhibition: 72.9%
50 μg/ml
  Percent NF-kB Inhibition: 91.4%
  NF-κB inhibition (in words): strong NF-κB inhibition
